Assay results from US20250387400A1, “TYK2 INHIBITORS” (BIOGEN MA INC., priority 2022, published 2025).
Counter-ions that a name gives are not always drawn. Like-named read-outs stand apart in the source and are kept apart here.

Assays:
Format in all cases: biochemical
[1] = molecular target: T1, catalytic kinase (JH1) domain of human TYK2 (Homo sapiens, UniProt P29597); assay: ADP-Glo kinase assay, TYK2 kinase domain
T1 construct: recombinantly generated catalytic kinase (also known as JH1) domain of human JAK1, JAK2, JAK3 and TYK2
T1 sequence (P29597 897-1176 limits assumed): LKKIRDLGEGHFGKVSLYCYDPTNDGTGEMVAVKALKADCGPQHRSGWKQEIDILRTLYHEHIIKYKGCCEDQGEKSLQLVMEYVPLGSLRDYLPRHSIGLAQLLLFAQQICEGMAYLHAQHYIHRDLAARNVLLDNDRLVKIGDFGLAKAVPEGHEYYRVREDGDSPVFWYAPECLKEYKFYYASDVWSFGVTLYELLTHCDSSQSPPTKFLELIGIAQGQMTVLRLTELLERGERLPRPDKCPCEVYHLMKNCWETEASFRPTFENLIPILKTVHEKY

[2] = molecular target: T2, catalytic kinase (JH1) domain of human JAK1 (Homo sapiens, UniProt P23458); assay: ADP-Glo kinase assay, JAK1 kinase domain
T2 construct: 4 nM of recombinant JAK1 kinase domain is used to phosphorylate

[3] = molecular target: T3, catalytic kinase (JH1) domain of human JAK2 (Homo sapiens, UniProt O60674); assay: ADP-Glo kinase assay, JAK2 kinase domain
T3 construct: Catalytic activities of recombinant JAK2, JAK3 and TYK2 kinase domain

[4] = molecular target: T4, catalytic kinase (JH1) domain of human JAK3 (Homo sapiens, UniProt P52333); assay: ADP-Glo kinase assay, JAK3 kinase domain
T4 construct: Catalytic activities of recombinant JAK2, JAK3 and TYK2 kinase domain

[5] = 2 nM recombinant TYK2 kinase domain, 50 μM JAK3-974 peptide, 10 μM ATP, 100 minutes, read-out: TYK2 biochem IC50 (nM) Mean
[6] = 4 nM recombinant JAK1 kinase domain, 50 μM JAK3-342 peptide, 35 μM ATP, 100 minutes, read-out: JAK1 biochem IC50 (nM) Mean
[7] = 0.2 nM recombinant JAK2 kinase domain, 50 μM JAK3-974 peptide, 15 μM ATP, 100 minutes, read-out: JAK2 biochem IC50 (nM) Mean
[8] = 0.3 nM recombinant JAK3 kinase domain, 50 μM JAK3-974 peptide, 4 μM ATP, 100 minutes, read-out: JAK3 biochem IC50 (nM) Mean

T4 sequence (P52333 822-1111 limits assumed): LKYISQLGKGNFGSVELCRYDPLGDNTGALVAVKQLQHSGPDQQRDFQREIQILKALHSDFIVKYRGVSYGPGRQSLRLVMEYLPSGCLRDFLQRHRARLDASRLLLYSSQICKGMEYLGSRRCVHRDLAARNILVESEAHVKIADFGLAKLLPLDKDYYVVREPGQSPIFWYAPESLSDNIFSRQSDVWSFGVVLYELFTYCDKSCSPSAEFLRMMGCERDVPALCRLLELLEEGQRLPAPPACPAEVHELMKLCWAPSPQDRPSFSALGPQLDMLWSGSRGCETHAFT
T2 sequence (P23458 875-1153 limits assumed): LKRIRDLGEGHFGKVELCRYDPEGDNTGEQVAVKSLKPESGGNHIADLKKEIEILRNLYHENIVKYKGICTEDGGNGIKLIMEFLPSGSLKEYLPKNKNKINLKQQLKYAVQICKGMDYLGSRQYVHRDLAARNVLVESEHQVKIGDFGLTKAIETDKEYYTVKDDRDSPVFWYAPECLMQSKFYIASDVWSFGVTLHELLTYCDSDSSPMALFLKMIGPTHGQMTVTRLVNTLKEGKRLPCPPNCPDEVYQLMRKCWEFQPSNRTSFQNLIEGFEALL
T3 sequence (O60674 849-1124 limits assumed): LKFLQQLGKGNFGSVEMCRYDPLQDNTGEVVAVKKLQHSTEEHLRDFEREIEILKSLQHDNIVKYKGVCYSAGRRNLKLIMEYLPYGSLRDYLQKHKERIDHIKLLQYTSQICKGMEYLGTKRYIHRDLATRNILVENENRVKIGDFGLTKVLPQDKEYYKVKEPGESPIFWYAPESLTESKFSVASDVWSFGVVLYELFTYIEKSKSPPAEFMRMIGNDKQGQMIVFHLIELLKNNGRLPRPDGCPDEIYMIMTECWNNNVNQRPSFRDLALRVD

| IC50 [1, 5] | IC50 [2, 6] | IC50 [3, 7] | IC50 [4, 8] | SMILES | IC50 [1] | IC50 [2] | IC50 [3] | IC50 [4] |
| --- | --- | --- | --- | --- | --- | --- | --- | --- |
| 72 nM | 420 nM | 305 nM | 1600 nM | COc1cc(-c2cc3c(N4CC5CCC(C4)N5C4CC(C#N)C4)ccnn3c2)cnn1 (centres unmarked) [Example 54, 3-(3-(6-(6-methoxypyridazin-4-yl)pyrrolo[1,2-b]pyridazin-4-y1)-3,8-diazabicyclo[3.2.1]octan-8-yl)cyclobutane-1-carbonitrile] |  |  |  |  |
|  |  |  |  | COc1cc(-c2cc3c(N4CC5CCC(C4)N5[C@H]4C[C@@H](C#N)C4)ccnc3[nH]2)ccn1 [Example 14, (1S,3s)-3-(3-(2-(2-methoxypyridin-4-yl)-1H-pyrrolo[2,3-b]pyridin-4-yl)-3,8-diazabicyclo[3.2.1]octan-8-yl)cyclobutane-1-carbonitrile] | 21.5 nM | 205 nM | 170 nM | 1800 nM |
| 330 nM | 970 nM | 635 nM | > 5000 nM | Cn1cc(-c2nc3c(N4CC5CCC(C4)N5C4CNC4)ccnc3[nH]2)cn1 [Example 11, 7-(8-(azetidin-3-yl)-3,8-diazabicyclo[3.2.1]octan-3-yl)-2-(1-methyl-1H-pyrazol-4-yl)-3H-imidazo[4,5-b]pyridine hydrochloride] |  |  |  |  |
|  |  |  |  | Cn1cc(-c2cc3c(N4CC5CCC(C4)N5C4CC5(COC5)C4)ccnn3c2)cn1 [Example 33, 4-(8-(2-oxaspiro[3.3]heptan-6-yl)-3,8-diazabicyclo[3.2.1]octan-3-yl)-6-(1-methyl-1H-pyrazol-4-yl)pyrrolo[1,2-b]pyridazine] | 42.5 nM | 1350 nM | 740 nM | 6200 nM |
| 715 nM | 4200 nM | 5700 nM | > 10000 nM | COc1cc(-c2cc3c(N4CC5CCC(C4)N5C4COC4)ccnn3c2)cnn1 [Example 53, 6-(6-methoxypyridazin-4-yl)-4-(8-(oxetan-3-yl)-3,8-diazabicyclo[3.2.1]octan-3-yl)pyrrolo[1,2-b]pyridazine] |  |  |  |  |
| 187 nM | 6500 nM | 3600 nM | > 10000 nM | CO[C@H]1C[C@H](N2C3CCC2CN(c2ccnn4cc(-c5cnn(C)c5)cc24)C3)C1 [Example 29, 4-(8-((1r,3R)-3-methoxycyclobutyl)-3,8-diazabicyclo[3.2.1]octan-3-yl)-6-(1-methyl-1H-pyrazol-4-yl)pyrrolo[1,2-b]pyridazine] |  |  |  |  |
| 40.5 nM | 520 nM | 265 nM | 1400 nM | Cn1cc(-c2cc3c(N4CC5CCC(C4)N5C4(CC#N)COC4)ccnn3c2)cn1 [Example 20, 2-(3-(3-(6-(1-methyl-1H-pyrazol-4-yl)pyrrolo[1,2-b]pyridazin-4-yl)-3,8-diazabicyclo[3.2.1]octan-8-yl)oxetan-3-yl)acetonitrile] |  |  |  |  |
| 260 nM | 4250 nM | 1800 nM | 1650 nM | Cn1cc(-c2cc3c(N4CC5CCC(C4)N5[C@H]4C[C@H](C#N)C4)ncnc3[nH]2)cn1 [Example 63, (1R,3r)-3-(3-(6-(1-methyl-1H-pyrazol-4-yl)-7H-pyrrolo[2,3-d]pyrimidin-4-yl)-3,8-diazabicyclo[3.2.1]octan-8-yl)cyclobutane-1-carbonitrile] |  |  |  |  |
| 90 nM | 820 nM | 950 nM | > 10000 nM | c1cc(-c2cc3c(N4CC5CCC(C4)N5C4COC4)ccnn3c2)cnn1 [Example 56, 4-(8-(oxetan-3-yl)-3,8-diazabicyclo[3.2.1]octan-3-yl)-6-(pyridazin-4-yl)pyrrolo[1,2-b]pyridazine] |  |  |  |  |
| 23 nM | 720 nM | 295 nM | 2550 nM | Cn1cc(-c2cc3c(N4CC5CCC(C4)N5[C@H]4C[C@](C)(C#N)C4)ccnn3c2)cn1 [Example 34, (1r,3r)-1-methyl-3-(3-(6-(1-methyl-1H-pyrazol-4-yl)pyrrolo[1,2-b]pyridazin-4-yl)-3,8-diazabicyclo[3.2.1]octan-8-yl)cyclobutane-1-carbonitrile] |  |  |  |  |

| SMILES | IC50 [1, 5] | IC50 [2, 6] | IC50 [3, 7] | IC50 [4, 8] | IC50 [1] | IC50 [2] | IC50 [3] | IC50 [4] |
| --- | --- | --- | --- | --- | --- | --- | --- | --- |
| Cn1cc(-c2cc3c(N4CC5CCC(C4)N5C4CC(F)(F)C4)ccnn3c2)cn1 [Example 52, 4-(8-(3,3-difluorocyclobutyl)-3,8-diazabicyclo[3.2.1]octan-3-yl)-6-(1-methyl-1H-pyrazol-4-yl)pyrrolo[1,2-b]pyridazine] | 1.9 nM | 57.2 nM | 35 nM | 574 nM |  |  |  |  |
